Measured values as given in US7825160B2, “(Biphenyl) carboxylic acids and derivatives thereof” (Cellzome Limited, priority 2004, dated 2010).

Assay: Demonstration of CNS penetration, brain and plasma levels in mice
Type: in vivo
Details: mouse, oral, mice (C57), 100 mg/kg orally, samples at 2, 4 and 8 h, read-out: % ratio of brain to plasma concentration
Experimental: In-vivo Study: A total number of 24 mice (C57) were dosed orally at 100 mg/kg of drug compound in 10% propylene glycol, 7.5% ethanol and 82.5% solutol. At designated times (2, 4 and 8 his), a group of eight mice were sacrificed, and plasma and brain tissue samples were collected by following the NIH guideline.
Bioanalytical: Plasma samples were prepared as follows. Two hundred microliters of acetonitrile containing internal standard was added to 100 μL of plasma to precipitate proteins. After vortexing, samples were centrifuged at 10000 g for 10 min and supernatants were transferred to HPLC sample vials for analysis by LC-MS-MS. Calibration standards were prepared by adding appropriate volumes of drug stock solution directly into blank plasma (from untreated animals) and processed identically to collected plasma samples.
Brain tissues were first homogenized in two-volume of PBS buffer (e.g. 100 mg tissue in 200 μL PBS). Two hundred microliters of acetonitrile containing internal standard was added to 100 μL of tissue homogenants to precipitate proteins. Three replicates were processed for each tissue homogenant. After vortexing, samples were centrifuged at 10000 g for 10 min and supernatants were transferred to HPLC sample vials for analysis by LC-MS-MS. […]

SMILES: CCC[C@H](C(=O)O)c1cc(OCc2ccccc2)cc(-c2ccc(C(F)(F)F)cc2)c1 (single isomer, unassigned) [LXV]
- Kp: 0.32
